According to the supplement of paper PMC8612539:
Converted amounts (≈) assume the structure as drawn.

System: Mannheimia haemolytica
Assay: minimum inhibitory concentration (MIC)
Experimental: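 Broth microdilution MIC (Sensititre BOPO7F bovine plate, CLSI methods) of 19 antimicrobials against field isolates of P. multocida, M. haemolytica, H. somni (deep nasopharyngeal swabs) and E. coli, Enterococcus spp. (rectal swabs) from weaned dairy heifers. Incubation 16-24 h at 35 C. MIC is the lowest concentration preventing visible growth. Values with <= or > lie at the tested range limits. Trimethoprim-sulfamethoxazole is given as the trimethoprim component of a 1:19 mixture.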

CC1(C)S[C@@H]2[C@H](NC(=O)[C@H](N)c3ccccc3)C(=O)N2[C@H]1C(=O)O [Ampicillin]
Conditions	minimum inhibitory concentration [µg/mL]
isolate (source animal id): 8	≤ 0.25
isolate (source animal id): 13	≤ 0.25
isolate (source animal id): 18	≤ 0.25
isolate (source animal id): 21	≤ 0.25
isolate (source animal id): 25	≤ 0.25
isolate (source animal id): 27	≤ 0.25
isolate (source animal id): 28	> 16
isolate (source animal id): 30	≤ 0.25
isolate (source animal id): 31	> 16
isolate (source animal id): 32	≤ 0.25
isolate (source animal id): 34	≤ 0.25
isolate (source animal id): 36	≤ 0.25
isolate (source animal id): 37	≤ 0.25
isolate (source animal id): 40	≤ 0.25
isolate (source animal id): 41	≤ 0.25
isolate (source animal id): 43	≤ 0.25
isolate (source animal id): 46	≤ 0.25
isolate (source animal id): 49	≤ 0.25
isolate (source animal id): 50	> 16
isolate (source animal id): 51	≤ 0.25
isolate (source animal id): 52	≤ 0.25
isolate (source animal id): 53	≤ 0.25
isolate (source animal id): 55	≤ 0.25
isolate (source animal id): 56	≤ 0.25
isolate (source animal id): 57	≤ 0.25
isolate (source animal id): 100	≤ 0.25
isolate (source animal id): 103	≤ 0.25
isolate (source animal id): 107	≤ 0.25
isolate (source animal id): 108	≤ 0.25
isolate (source animal id): 112	≤ 0.25
isolate (source animal id): 113	≤ 0.25
isolate (source animal id): 121	> 16
isolate (source animal id): 122	≤ 0.25
isolate (source animal id): 123	0.5 (≈ 1.43 µM)
isolate (source animal id): 126	> 16
isolate (source animal id): 133	≤ 0.25
isolate (source animal id): 135	≤ 0.25
isolate (source animal id): 138	> 16
isolate (source animal id): 141	≤ 0.25
isolate (source animal id): 142	≤ 0.25
isolate (source animal id): 145	≤ 0.25
isolate (source animal id): 149	≤ 0.25
isolate (source animal id): 151	≤ 0.25
isolate (source animal id): 152	≤ 0.25
isolate (source animal id): 154	≤ 0.25
isolate (source animal id): 159	16 (≈ 45.8 µM)
isolate (source animal id): 162	8 (≈ 22.9 µM)
isolate (source animal id): 170	> 16
isolate (source animal id): 171	≤ 0.25
isolate (source animal id): 172	> 16
isolate (source animal id): 173	> 16
isolate (source animal id): 179	> 16
isolate (source animal id): 180	> 16
isolate (source animal id): 183	> 16
isolate (source animal id): 186	> 16
isolate (source animal id): 187	> 16
isolate (source animal id): 188	> 16
isolate (source animal id): 190	≤ 0.25
isolate (source animal id): 191	> 16
isolate (source animal id): 192	≤ 0.25
isolate (source animal id): 201	> 16
isolate (source animal id): 202	> 16
isolate (source animal id): 209	> 16
isolate (source animal id): 211	> 16
isolate (source animal id): 220	> 16
isolate (source animal id): 221	16 (≈ 45.8 µM)
isolate (source animal id): 223	> 16
isolate (source animal id): 233	> 16
isolate (source animal id): 237	≤ 0.25
isolate (source animal id): 241	> 16
isolate (source animal id): 252	≤ 0.25
isolate (source animal id): 253	≤ 0.25
isolate (source animal id): 259	16 (≈ 45.8 µM)
isolate (source animal id): 260	≤ 0.25
isolate (source animal id): 262	> 16
isolate (source animal id): 282	> 16
isolate (source animal id): 287	≤ 0.25
isolate (source animal id): 288	≤ 0.25
isolate (source animal id): 291	≤ 0.25
isolate (source animal id): 293	≤ 0.25
isolate (source animal id): 298	≤ 0.25
isolate (source animal id): 299	≤ 0.25
isolate (source animal id): 300	≤ 0.25
isolate (source animal id): 302	≤ 0.25
isolate (source animal id): 304	≤ 0.25
isolate (source animal id): 306	≤ 0.25
isolate (source animal id): 308	≤ 0.25
isolate (source animal id): 309	≤ 0.25
isolate (source animal id): 313	≤ 0.25
isolate (source animal id): 318	≤ 0.25
isolate (source animal id): 320	≤ 0.25
isolate (source animal id): 321	≤ 0.25
isolate (source animal id): 323	≤ 0.25
isolate (source animal id): 324	≤ 0.25
isolate (source animal id): 326	≤ 0.25
isolate (source animal id): 328	≤ 0.25
isolate (source animal id): 329	≤ 0.25
isolate (source animal id): 333	≤ 0.25
isolate (source animal id): 335	≤ 0.25
isolate (source animal id): 338	≤ 0.25

CC[C@H]1OC(=O)C[C@@H](O)[C@H](C)[C@@H](O[C@@H]2O[C@H](C)[C@@H](O[C@H]3C[C@@](C)(O)[C@@H](O)[C@H](C)O3)[C@H](N(C)C)[C@H]2O)[C@@H](CC=O)C[C@@H](C)C(=O)/C=C/C(C)=C/[C@@H]1CO[C@@H]1O[C@H](C)[C@@H](O)[C@@H](OC)[C@H]1OC [Tylosin]
Conditions	minimum inhibitory concentration [µg/mL]
isolate (source animal id): 8	> 32
isolate (source animal id): 13	> 32
isolate (source animal id): 18	> 32
isolate (source animal id): 21	> 32
isolate (source animal id): 25	> 32
isolate (source animal id): 27	> 32
isolate (source animal id): 28	> 32
isolate (source animal id): 30	> 32
isolate (source animal id): 31	> 32
isolate (source animal id): 32	> 32
isolate (source animal id): 34	> 32
isolate (source animal id): 36	> 32
isolate (source animal id): 37	> 32
isolate (source animal id): 40	32 (≈ 34.9 µM)
isolate (source animal id): 41	> 32
isolate (source animal id): 43	> 32
isolate (source animal id): 46	> 32
isolate (source animal id): 49	> 32
isolate (source animal id): 50	> 32
isolate (source animal id): 51	> 32
isolate (source animal id): 52	> 32
isolate (source animal id): 53	> 32
isolate (source animal id): 55	32 (≈ 34.9 µM)
isolate (source animal id): 56	> 32
isolate (source animal id): 57	> 32
isolate (source animal id): 100	> 32
isolate (source animal id): 103	> 32
isolate (source animal id): 107	> 32
isolate (source animal id): 108	> 32
isolate (source animal id): 112	> 32
isolate (source animal id): 113	> 32
isolate (source animal id): 121	> 32
isolate (source animal id): 122	> 32
isolate (source animal id): 123	> 32
isolate (source animal id): 126	> 32
isolate (source animal id): 133	> 32
isolate (source animal id): 135	> 32
isolate (source animal id): 138	> 32
isolate (source animal id): 141	> 32
isolate (source animal id): 142	> 32
isolate (source animal id): 145	> 32
isolate (source animal id): 149	> 32
isolate (source animal id): 151	> 32
isolate (source animal id): 152	> 32
isolate (source animal id): 154	> 32
isolate (source animal id): 159	> 32
isolate (source animal id): 162	> 32
isolate (source animal id): 170	> 32
isolate (source animal id): 171	> 32
isolate (source animal id): 172	> 32
isolate (source animal id): 173	> 32
isolate (source animal id): 179	32 (≈ 34.9 µM)
isolate (source animal id): 180	> 32
isolate (source animal id): 183	> 32
isolate (source animal id): 186	> 32
isolate (source animal id): 187	> 32
isolate (source animal id): 188	> 32
isolate (source animal id): 190	> 32
isolate (source animal id): 191	> 32
isolate (source animal id): 192	> 32
isolate (source animal id): 201	> 32
isolate (source animal id): 202	> 32
isolate (source animal id): 209	> 32
isolate (source animal id): 211	> 32
isolate (source animal id): 220	> 32
isolate (source animal id): 221	> 32
isolate (source animal id): 223	> 32
isolate (source animal id): 233	> 32
isolate (source animal id): 237	> 32
isolate (source animal id): 241	> 32
isolate (source animal id): 252	> 32
isolate (source animal id): 253	> 32
isolate (source animal id): 259	> 32
isolate (source animal id): 260	> 32
isolate (source animal id): 262	> 32
isolate (source animal id): 282	> 32
isolate (source animal id): 287	> 32
isolate (source animal id): 288	> 32
isolate (source animal id): 291	> 32
isolate (source animal id): 293	> 32
isolate (source animal id): 298	> 32
isolate (source animal id): 299	> 32
isolate (source animal id): 300	32 (≈ 34.9 µM)
isolate (source animal id): 302	> 32
isolate (source animal id): 304	> 32
isolate (source animal id): 306	> 32
isolate (source animal id): 308	> 32
isolate (source animal id): 309	> 32
isolate (source animal id): 313	> 32
isolate (source animal id): 318	> 32
isolate (source animal id): 320	> 32
isolate (source animal id): 321	> 32
isolate (source animal id): 323	> 32
isolate (source animal id): 324	> 32
isolate (source animal id): 326	> 32
isolate (source animal id): 328	> 32
isolate (source animal id): 329	> 32
isolate (source animal id): 333	> 32
isolate (source animal id): 335	> 32
isolate (source animal id): 338	> 32
